Assay results from article PMC7996082, “The translocator protein ligands as mitochondrial functional modulators for the potential anti-Alzheimer agents” (Journal of Enzyme Inhibition and Medicinal Chemistry, 2021).

What was measured:
[1] = system: HT-22 (mouse hippocampal cells) cells treated with Aβ; assay: JC-1 assay: recovery of mitochondrial membrane potential (ΔΨm) after Aβ; type: cell-based; settings: 5 μM compound, 5 μM Aβ, HT22 cells; 0% = Aβ-induced damaged condition, 100% = normal condition
Description: Thirty thousand HT-22 cells per well were seeded into a clear 96-well plate (FALCON) at 200 µL per well one day prior to assay. 750 mM of JC-1 (Stratagene) in DMSO stock solution was dissolved into phenol red-free Opti-MEM (GIBCO) medium to make final concentration of 7.5 mM JC-1 per well. Medium was removed from the plate, and 100 µL per well of JC-1 was added. The sample plates were incubated for 1 h and 15 min at 37 °C and washed twice with 100 µL per well of PBS. Subsequently, cells were treated with a 25 µL solution of each compound at 10 µM in Opti-MEM and incubated at 37 °C for 10 min followed by addition of a 25 µL of Aβ (American peptide, 1-42) solution at 10 µM. Fluorescence was measured at every one hour for three hours at ex/em 530 nm/580 nm (“red”) and ex/em 485 nm/530 nm (“green”) by using the Flexstation® 3 (Molecular Devices, USA) reader. The ratio of green to red fluorescence was calculated and normalised by taking the percent changes using vehicle control as 100%.
The selected 56 compounds were purchased and tested by in vitro cell-based assays. Four different cell-based assays (JC-1, MTT, ATP production, and cellular ROS assays) were carried out sequentially. First, the JC-1 assay was performed to screen all 56 compounds, VH001–VH056 (Supplementary Table S1). Since mitochondrial membrane depolarisation is one of the distinct signs of mPTP opening, the mitochondrial uptake of a fluorescent JC-1 dye (5,59,6,69-tetrachloro-1,19,3,39-tetraethylbenzimidazolocarbocyanine iodide) was measured to evaluate the effects of each compound on the mitochondrial membrane potential (ΔΨm). HT22 cells, a mouse hippocampal cell line, were treated with 5 µM of Aβ, incubated with each compound at the same concentration of 5 µM, and subsequently treated with JC-1. On the basis of changes in the red/green fluorescence intensity ratio between the cells treated with Aβ and control, the percent recovery of ΔΨm for each compound was calculated and normalised to the ΔΨm of healthy cells as 100%.
Compd Structure ∆Ψm at 5 Compd Structure ∆Ψm at 5 […]
a After the treatment of each compound (5 μM) and Aβ (5 μM) in HT22 cell, the increase of fluorescence ratio (green/red) was measured and normalized by taking the change of the ratio between 0% (Aβ-induced damaged condition) and 100% (normal condition in the absence of Aβ).

hERG channel = target: T1, hERG channel (Homo sapiens, UniProt Q12809); assay: hERG inhibition assay (automated patch-clamp, CHO-K1 Tet-On hERG cells); type: cell-based; settings: patch-clamp, ± SD
T1 construct: host or cells: CHO-K1 Tet-On hERG cells
T1 sequence (Q12809 whole entry): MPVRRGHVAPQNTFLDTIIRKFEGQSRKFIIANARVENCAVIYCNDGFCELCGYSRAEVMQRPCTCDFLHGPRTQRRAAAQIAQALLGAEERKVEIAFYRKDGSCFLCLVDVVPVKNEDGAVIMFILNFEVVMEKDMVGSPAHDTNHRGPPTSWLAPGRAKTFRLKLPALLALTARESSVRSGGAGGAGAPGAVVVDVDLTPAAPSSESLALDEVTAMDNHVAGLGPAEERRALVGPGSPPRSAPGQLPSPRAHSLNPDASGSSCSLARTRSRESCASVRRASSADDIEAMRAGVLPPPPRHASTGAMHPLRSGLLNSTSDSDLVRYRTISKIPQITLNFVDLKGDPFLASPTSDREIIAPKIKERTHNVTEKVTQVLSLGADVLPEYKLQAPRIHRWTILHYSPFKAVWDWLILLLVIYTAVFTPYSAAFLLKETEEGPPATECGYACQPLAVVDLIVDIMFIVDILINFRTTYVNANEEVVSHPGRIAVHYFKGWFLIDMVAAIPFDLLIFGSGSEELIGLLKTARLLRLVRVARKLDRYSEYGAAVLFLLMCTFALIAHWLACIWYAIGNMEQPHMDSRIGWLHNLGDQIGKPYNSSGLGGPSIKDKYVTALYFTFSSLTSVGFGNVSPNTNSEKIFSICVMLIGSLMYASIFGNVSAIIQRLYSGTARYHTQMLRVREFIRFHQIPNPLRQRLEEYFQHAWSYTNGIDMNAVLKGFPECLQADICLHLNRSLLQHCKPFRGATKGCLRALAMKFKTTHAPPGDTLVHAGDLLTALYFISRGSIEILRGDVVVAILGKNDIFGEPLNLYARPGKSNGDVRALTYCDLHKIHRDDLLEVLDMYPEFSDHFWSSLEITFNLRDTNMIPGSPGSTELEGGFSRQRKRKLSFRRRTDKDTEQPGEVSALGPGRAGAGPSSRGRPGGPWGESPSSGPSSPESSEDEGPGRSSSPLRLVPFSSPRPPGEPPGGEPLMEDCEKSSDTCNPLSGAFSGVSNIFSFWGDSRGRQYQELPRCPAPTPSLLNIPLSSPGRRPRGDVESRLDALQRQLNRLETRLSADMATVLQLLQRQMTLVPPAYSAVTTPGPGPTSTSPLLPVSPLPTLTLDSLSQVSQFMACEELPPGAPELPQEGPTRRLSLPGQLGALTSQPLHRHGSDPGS
Description: For automated patch-clamp NPC-16 Patchliner (Nanion Technologies, München, Germany) recordings, CHO-K1 Tet-On hERG cells (IonGate Biosciences GmbH, Frankfurt, Germany) were plated into 100-mm cell culture dishes. Whole-cell currents were recorded with the intracellular solution containing: 50 mM KCl, 60 mM KF, 10 mM NaCl, 2 mM MgCl2, 20 mM EGTA and 10 mM HEPES (pH 7.2), and with the extracellular solution containing: 140 mM NaCl, 4 mM KCl, 2 mM CaCl2, 1 mM MgCl2, 5 mM Glucose and 10 HEPES (pH 7.4). To assist stable seal formations, the seal enhancer containing: 80 mM NaCl, 3 mM KCl, 35 mM CaCl2, 10 mM MgCl2 and 10 mM HEPES (pH 7.4) was used only at the seal formation step. Prior to the whole-cell recordings, the external seal enhancing solution was exchanged to the extracellular solution described above. hERG channel currents were recorded using the parallel EPC-10 patch-clamp amplifiers (HEKA Elektronik, Lambrecht/Pfalz, Germany), and low-pass filtered (10 kHz) with a 4-pole Bessel filter. Cell suspension and patch solutions were automatically added onto the four recording wells in the microfabricated disposable chip (NPC-16 Chip, Nanion Technologies, München, Germany). To obtain the inhibitory constants, hERG tail currents were evoked by repolarizing steps to −50 mV for 500 ms preceded by a 500-ms depolarisation potential of +20 mV at a holding potential of −80 mV with a 20-s sweep interval. Whole-cell currents were acquired and digitised at 5 kHz using Patchmaster (HEKA Elektronik, Lambrecht/Pfalz, Germany). The extracellular solution was exchanged to the extracellular solution containing each blocker via four pipette tips of NPC-16 Patchliner using a 4-fold volume of solution (40 µL) with a speed of 4 µL/s, and the exchanged blocker solution was applied for 100–200 s to the patch-clamped cells until blocker binding had reached equilibrium by monitoring hERG tail currents. Whole-cell recordings were analysed using the Patchmaster/Fitmaster (HEKA Elektronik, Lambrecht/Pfalz, Germany), IGOR Pro (WaveMetrics Inc., Portland, OR, USA), and the GraphPad Prism 4.0 (GraphPad Software, Inc., La Jolla, CA, USA) software.

CYP2C19 = target: T2, CYP2C19 (Homo sapiens, UniProt P33261); assay: CYP inhibition assay (Vivid CYP450 screening kit); type: in vitro ADME; settings: 10 μM compound
T2 construct: purchased Invitrogen, Madison, WI, USA
T2 sequence (P33261 whole entry): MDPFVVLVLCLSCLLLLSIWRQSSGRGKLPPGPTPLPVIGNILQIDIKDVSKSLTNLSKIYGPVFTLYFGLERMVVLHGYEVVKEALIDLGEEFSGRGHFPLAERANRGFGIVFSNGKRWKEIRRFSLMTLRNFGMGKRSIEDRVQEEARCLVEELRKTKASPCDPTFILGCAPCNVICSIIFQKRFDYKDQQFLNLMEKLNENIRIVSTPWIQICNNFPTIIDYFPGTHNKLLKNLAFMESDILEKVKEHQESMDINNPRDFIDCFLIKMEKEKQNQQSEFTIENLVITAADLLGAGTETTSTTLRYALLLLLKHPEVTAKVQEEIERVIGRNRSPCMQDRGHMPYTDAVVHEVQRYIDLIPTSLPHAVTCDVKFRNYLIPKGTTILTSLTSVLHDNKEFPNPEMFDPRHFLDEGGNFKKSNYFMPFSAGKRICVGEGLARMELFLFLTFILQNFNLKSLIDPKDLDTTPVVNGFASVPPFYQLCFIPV
Description: (§1) Human CYP450 (CYP1A2, 2D6, 2C9, 2C19, and 3A4) activities were determined by using the Vivid® CYP450 screening kit (Invitrogen, Madison, WI, USA) in a clear 96-well plate. Five positive controls were used as 10 mM solutions in MeCN for five different CYP450 enzymes: CYP1A2 (α-naphthoflavone), CYP2D6 (quinidine), CYP2C9 (sulfaphenazole), CYP2C19 (lansoprazole), and CYP3A4 (ketoconazole). Each sample (test compounds, positive inhibition controls, and solvent controls) was added into each well with the Master Pre-Mix [CYP450 BACULOSOMES® Reagent (recombinant human CYP450 isozyme and rabbit NADPHP450 reductase) and Regeneration System (3.3 mM glucose-6-phosphate and 0.3 U/ml glucose-6-phosphate dehydrogenase in 100 mM potassium phosphate, pH 8.0)]. The mixture was incubated for 5 min at 37 °C, and the Vivid® CYP substrates and 0.1 mM NADP^+ buffer were added to initiate the CYP450 enzyme reaction. The % remaining activities of CYP450 were measured after 20 min by using a fluorescent plate reader (Flexstation® 3, Molecular Devices, USA).

CYP1A2 = target: T3, CYP1A2 (Homo sapiens, UniProt P05177); assay: CYP inhibition assay (Vivid CYP450 screening kit); type: in vitro ADME; settings: 10 μM compound
T3 construct: purchased Invitrogen, Madison, WI, USA
T3 sequence (P05177 2-516 limits assumed): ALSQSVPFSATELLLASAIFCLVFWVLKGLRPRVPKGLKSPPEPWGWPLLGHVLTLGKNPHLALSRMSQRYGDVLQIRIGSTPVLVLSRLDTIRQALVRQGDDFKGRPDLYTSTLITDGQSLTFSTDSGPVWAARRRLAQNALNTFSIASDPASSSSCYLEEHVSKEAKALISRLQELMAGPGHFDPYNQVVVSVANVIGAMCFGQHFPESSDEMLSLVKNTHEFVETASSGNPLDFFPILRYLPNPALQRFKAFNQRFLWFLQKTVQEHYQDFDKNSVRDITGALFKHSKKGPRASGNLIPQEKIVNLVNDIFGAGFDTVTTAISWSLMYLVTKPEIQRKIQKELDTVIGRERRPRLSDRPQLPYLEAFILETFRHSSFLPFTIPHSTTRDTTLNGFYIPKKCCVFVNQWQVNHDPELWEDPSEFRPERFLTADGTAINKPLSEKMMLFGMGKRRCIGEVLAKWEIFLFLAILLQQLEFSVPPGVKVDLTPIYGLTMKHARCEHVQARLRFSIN
Description: as §1

CYP2D6 = target: T4, CYP2D6 (Homo sapiens, UniProt P10635); assay: CYP inhibition assay (Vivid CYP450 screening kit); type: in vitro ADME; settings: 10 μM compound
T4 construct: purchased Invitrogen, Madison, WI, USA
T4 sequence (P10635 whole entry): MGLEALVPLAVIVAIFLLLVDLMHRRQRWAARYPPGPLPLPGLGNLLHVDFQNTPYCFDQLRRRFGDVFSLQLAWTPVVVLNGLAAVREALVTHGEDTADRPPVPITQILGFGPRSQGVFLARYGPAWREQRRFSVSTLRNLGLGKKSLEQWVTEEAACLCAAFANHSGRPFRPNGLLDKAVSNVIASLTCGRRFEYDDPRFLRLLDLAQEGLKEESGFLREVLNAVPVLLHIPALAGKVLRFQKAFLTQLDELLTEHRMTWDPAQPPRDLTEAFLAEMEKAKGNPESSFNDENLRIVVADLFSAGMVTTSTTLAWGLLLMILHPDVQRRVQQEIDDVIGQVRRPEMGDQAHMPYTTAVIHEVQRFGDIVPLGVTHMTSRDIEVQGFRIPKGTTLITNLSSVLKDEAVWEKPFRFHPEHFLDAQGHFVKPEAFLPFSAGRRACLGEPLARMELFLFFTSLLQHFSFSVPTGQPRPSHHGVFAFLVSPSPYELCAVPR
Description: as §1

CYP3A4 = target: T5, CYP3A4 (Homo sapiens, UniProt P08684); assay: CYP inhibition assay (Vivid CYP450 screening kit); type: in vitro ADME; settings: 10 μM compound
T5 construct: purchased Invitrogen, Madison, WI, USA
T5 sequence (P08684 2-503 limits assumed): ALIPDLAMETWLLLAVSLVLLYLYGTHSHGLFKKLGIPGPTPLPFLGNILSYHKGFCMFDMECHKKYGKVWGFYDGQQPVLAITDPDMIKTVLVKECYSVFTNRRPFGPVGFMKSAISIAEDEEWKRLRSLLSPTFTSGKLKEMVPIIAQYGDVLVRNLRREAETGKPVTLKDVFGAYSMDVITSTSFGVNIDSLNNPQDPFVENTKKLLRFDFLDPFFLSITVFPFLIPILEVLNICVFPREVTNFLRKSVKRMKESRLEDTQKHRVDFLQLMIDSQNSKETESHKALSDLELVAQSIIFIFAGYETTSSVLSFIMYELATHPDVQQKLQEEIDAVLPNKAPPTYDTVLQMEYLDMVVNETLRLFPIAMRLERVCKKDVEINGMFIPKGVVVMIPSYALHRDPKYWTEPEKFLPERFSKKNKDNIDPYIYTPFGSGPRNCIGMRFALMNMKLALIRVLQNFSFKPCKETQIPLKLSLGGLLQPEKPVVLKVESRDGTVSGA
Description: as §1

CYP2C9 = target: T6, CYP2C9 (Homo sapiens, UniProt P11712); assay: CYP inhibition assay (Vivid CYP450 screening kit); type: in vitro ADME; settings: 10 μM compound
T6 construct: purchased Invitrogen, Madison, WI, USA
T6 sequence (P11712 whole entry): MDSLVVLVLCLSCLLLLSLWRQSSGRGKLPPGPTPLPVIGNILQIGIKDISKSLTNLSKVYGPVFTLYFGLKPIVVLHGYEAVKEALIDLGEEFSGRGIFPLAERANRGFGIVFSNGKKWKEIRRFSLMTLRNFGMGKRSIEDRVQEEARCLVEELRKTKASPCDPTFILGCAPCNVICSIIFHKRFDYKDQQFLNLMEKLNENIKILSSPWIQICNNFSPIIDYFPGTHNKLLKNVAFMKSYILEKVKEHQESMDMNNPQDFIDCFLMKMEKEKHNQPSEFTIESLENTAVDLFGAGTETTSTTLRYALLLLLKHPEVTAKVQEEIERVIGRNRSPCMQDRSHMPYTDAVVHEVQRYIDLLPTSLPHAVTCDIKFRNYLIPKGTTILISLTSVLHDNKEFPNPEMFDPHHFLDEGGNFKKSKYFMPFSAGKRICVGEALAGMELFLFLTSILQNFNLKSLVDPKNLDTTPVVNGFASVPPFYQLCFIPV
Description: as §1

[2] = Liver microsomal stability; type: in vitro ADME; settings: human, liver microsomes, 1 µM compound, 0.5 mg/mL microsomes, 30 min, 37 °C; read-out: Human Liver Microsomal Stability (% remaining after 30 min)
Description: Liver microsomes (human, dog, rat, and mouse; 0.5 mg/mL) were incubated with 1 µM of each test compound in the presence of potassium phosphate buffer (PPB) for 5 min at 37 °C. A solution of the NADPH regeneration system (#44332000, Oriental Yeast Co., Japan) was added to begin metabolic reactions of liver microsomes. The resulting mixtures were incubated for 30 min at 37 °C, and the reaction was terminated by the addition of a cold MeCN solution containing an internal standard (chlorpropamide). The mixture was separated by centrifugation (14,000 rpm for 5 min at 4 °C), and the supernatant was analysed by LC-MS/MS (Shimadzu Nexera XR system and TSQ vantage; Thermo Scientific).

[3] = MTT assay: HT22 cell viability with compound alone; type: cell-based, mouse; settings: mouse, HT22 cells; HT22 cell viability after 24 h of treatment with 5 μM compound, no Aβ
Description: To a clear 96-well plate (FALCON), the cultured HT-22 cells were seeded in a number of 5,000 per well 24 h prior to the assay. A solution of each test compound (5 µM, 25 µL) was added to each well. After 24 h of incubation at 37 °C, the cells were treated with a 10 µL of MTT solution (3–(4,5-dimethylthiazol-2-yl)-2,5-diphenyltetrazolium bromide, Sigma-Aldrich), incubated for 2 h at 37 °C, and were treated with 135 µL of MTT solubilising solution (10% Triton-X 100 in isopropanol with 0.1 M HCl) for 2 h at 37 °C. The % values of cell viability were determined by using the optical density (OD) values at 560 nm, and normalised by taking the vehicle control (5 µM of DMSO) as […].

Row | SMILES | Recovery of ΔΨm (%) [1] [%] | IC50 (hERG channel) [µM] | CYP450 (% remaining Activity at 10 μM) CYP2C19 (CYP2C19) [%] | CYP450 (% remaining Activity at 10 μM) CYP1A2 (CYP1A2) [%] | CYP450 (% remaining Activity at 10 μM) CYP2D6 (CYP2D6) [%] | CYP450 (% remaining Activity at 10 μM) CYP3A4 (CYP3A4) [%] | CYP450 (% remaining Activity at 10 μM) CYP2C9 (CYP2C9) [%] | remaining at 0.5 h, 1 µM [2] [%] | viability at 24 h, 5 µM [3] [%]
1 | CCc1ccc(Nc2cc(C(=O)NCCc3cccc(C)c3)c3ccccc3n2)cc1 [VH029] | 18 | – | – | – | – | – | – | – | –
2 | CCN(CCNC(=O)c1cc(-c2cccnc2)nc2ccccc12)c1ccccc1 [VH026] | 49 | – | – | – | – | – | – | – | –
3 | CCOc1ccc(-c2cc(C(=O)NCC(C)CN(CC)CC)c3ccccc3n2)cc1 (stereo not drawn) [VH030] | 60 | – | – | – | – | – | – | – | –
4 | CCOc1ccc(-c2cc(C(=O)NCCCN(CC)c3ccccc3)c3ccccc3n2)cc1 [VH024] | 74 | – | – | – | – | – | – | – | –
5 | CCOc1ccc(-n2c(SCC(=O)NCc3ccc(C)cc3)nc3sc4c(c3c2=O)CCN(C(C)=O)C4)cc1 [Compound 36] | – | 22 ± 12.7 | 92.7 | 123.6 | 98.9 | 17.3 | 50.4 | 0 | 96
6 | CCOc1ccc(-n2c(SCC(=O)N(CC)Cc3ccccc3)nc3sc4c(c3c2=O)CCN(C)C4)cc1 [Compound 51] | – | 10 ± 3.6 | 52.5 | 98.7 | 61.4 | 44.1 | 105.8 | 82 | 107
7 | CCOc1ccc(-n2c(SCC(=O)N(CC)Cc3ccccc3)nc3sc4c(c3c2=O)CCN(C(C)=O)C4)cc1 [Compound 33] | – | 2.77 ± 1.18 | 35.7 | 150.5 | 82.0 | 56.6 | 32.8 | < 10 | 104
8 | CCOc1ccc(-n2c(SCC(=O)Nc3ccc(C)cc3)nc3sc4c(c3c2=O)CCN(C)C4)cc1 [Compound 55] | – | 5.63 ± 1.75 | 31.2 | 69.2 | 59.2 | 23.0 | 43.0 | 49.1 | 127
9 | CCOc1ccc(-n2c(SCC(=O)Nc3ccc(Cl)cc3)nc3sc4c(c3c2=O)CCN(C(C)=O)C4)cc1 [Compound 35] | – | 30 ± 10.2 | 72.0 | 120.0 | 113.8 | 70.7 | 64.0 | 0.1 | 107
10 | CCOc1ccc(-n2c(SCC(=O)N(C)Cc3ccccc3)nc3sc4c(c3c2=O)CCN(C(C)=O)C4)cc1 [Compound 32] | – | 6.53 ± 2.46 | 23.3 | 117.3 | 91.7 | 49.3 | 30.9 | < 10 | 88
11 | CCOc1ccc(-n2c(SCC(=O)NCc3ccc(Cl)cc3)nc3sc4c(c3c2=O)CCN(C)C4)cc1 [Compound 52] | – | 8.6 ± 0.83 | 16.1 | 117.2 | 36.6 | 42.6 | 86.9 | 67.6 | 80
